The record followed here is US20240391862A1, “(1,4,5-TRISUBSTITUTED-1H-PYRAZOL-3-YL)OXY-2-ALKOXY ALKYL ACIDS AND THEIR DERIVATIVES, THEIR SALTS AND THEIR USE AS HERBICIDAL AGENTS” (Bayer AKtiengesellschaft, priority 2021, published 2024).

The subject of one data set is AVEFA. In words: Post-emergence herbicidal effect, greenhouse pot test. The note with it: visual rating about 3 weeks after treatment. Format: in vivo, Avena fatua. The essentials: (§1)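 Greenhouse pot plants in sandy loam receive a one-leaf-stage spray at 20 to 320 g/ha. Activity is assessed visually around 3 weeks afterwards on a 0–100% scale, where 100% means the plants have died.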

Another data set relates to ALOMY. Described as above. Format: in vivo, Alopecurus myosuroides. The following applies: 320 g/ha, visual rating about 3 weeks after treatment; for pest or weed control at 320 g/ha: Alopecurus myosuroides, 504 h, read-out: Post-emergence effect against ALOMY. The procedure, abridged:
as §1

In another data set the test system is ORYSA. Nature of the data set: Post-emergence herbicidal effect and crop plant compatibility, greenhouse pot test. The class given is in vivo, Oryza sativa. The following applies: for Post-emergence effect against ORYSA: visual rating about 3 weeks after treatment, crop plant; for Post-emergence effect at 320 g/ha against ORYSA in %: one-leaf stage, rated visually after about 3 weeks vs untreated controls. From the text: • ALOMY: Alopecurus myosuroides SETVI: Setaria viridis • AVEFA: Avena fatua POLCO: Fallopia convolvulus • AMARE: Amaranthus retroflexus ECHCG: Echinochloa crus-galli • LOLRJ: Lolium rigidum STEME: Stellaria media • VERPE: Veronica persica MATIN: Tripleurospermum inodorum • DIGSA: Digitaria sanguinalis ABUTH: Abutylon threophrasti • TRZAS: Triticum aestivum VIOTR: Viola tricolor • BRSNW: Brassica napus ZEAMX: Zea mays • PHBPU: Ipomoea purpurea GLXMA: Glycine max • ORYSA: Oryza sativa HORMU: Hordeum murinum
Seeds of monocotyledonous and dicotyledonous weeds and crop plants are placed in sandy loam in plastic or organic planting pots, covered with soil and cultivated in a greenhouse under controlled growth conditions. 2 to 3 weeks after sowing, the trial plants are treated at the one-leaf stage. The compounds of the invention, formulated in the form of wettable powders (WP) or as emulsion concentrates (EC), are then sprayed onto the green parts of the plants as aqueous suspension or emulsion with addition of 0.5% additive at a water application rate of 600 l/ha (converted). After the test plants have been kept in the greenhouse under optimum growth conditions for about 3 weeks, the activity of the preparations is rated visually in comparison to untreated controls. For example, 100% activity=the plants have died, 0% activity=like control plants.
Tables 20a to 38c below show the effects/crop compatibilities of selected compounds of the general formula (I) on various harmful plants at an application rate corresponding to 20 to 320 g/ha, which were obtained by the trial procedure specified above.

In the next data set the test system is SETVI. In words: Post-emergence herbicidal effect, greenhouse pot test. The class given is in vivo, Setaria viridis. The essentials:
as §1

A further data set concerns ABUTH. The description is as above. Format: in vivo, Abutilon theophrasti. The note with it: visual rating about 3 weeks after treatment. The essentials: as §1
The test system of the next data set is MATIN. Described as above. Format: in vivo, Tripleurospermum inodorum. The essentials:
as §1

Another data set concerns VIOTR. The description is as above. The class given is in vivo, Viola tricolor. The essentials:
as §1

A further data set deals with ECHCG. The data set is described as above. The class given is in vivo, Echinochloa crus-galli. The following applies: for pest or weed control at 80 g/ha / pest or weed control at 320 g/ha: Echinochloa crus-galli, 504 h, read-out: Post-emergence effect against ECHCG in %. The essentials: as §1
For a further data set, the system named is AMARE. The description is as above. Format: in vivo, Amaranthus retroflexus. The note with it: visual rating about 3 weeks after treatment; for pest or weed control at 320 g/ha: Amaranthus retroflexus, 504 h, read-out: Post-emergence effect against AMARE. The essentials:
as §1

Another data set relates to LOLRI. The description is as above. The class given is in vivo, Lolium rigidum. The following applies: 320 g/ha; for pest or weed control at 320 g/ha: Lolium rigidum, 504 h, read-out: Post-emergence effect against LOLRI in %. The essentials: as §1
The next data set has as its system DIGSA. The data set is described as above. Format: in vivo, Digitaria sanguinalis. The note with it: visual rating about 3 weeks after treatment; for pest or weed control at 320 g/ha: Digitaria sanguinalis, 504 h, read-out: Post-emergence effect against DIGSA. The essentials:
as §1

Another data set relates to TRZAS. In words: Post-emergence herbicidal effect and crop plant compatibility, greenhouse pot test. Format: in vivo, Triticum aestivum. The note with it: 20 g/ha, one-leaf stage, rated visually after about 3 weeks vs untreated controls; for percent crop injury (phytotoxicity) to wheat, post-emergence at 20 g/ha: Triticum aestivum, 504 h, read-out: Post-emergence effect at 20 g/ha against TRZAS in %. The procedure, abridged: (§2)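 Sandy loam pots, greenhouse. One-leaf stage (2–3 wk after sowing) foliar spray; WP/EC in water + 0.5% additive, 600 l/ha; 20–320 g/ha. Visual score ~3 wk, 0–100% vs untreated.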

The test system of the next data set is VERPE. Nature of the data set: Post-emergence herbicidal effect, greenhouse pot test. The class given is in vivo, Veronica persica. The essentials: as §1
Another data set deals with POLCO. The description is as above. The class given is in vivo, Fallopia convolvulus. The procedure, abridged: as §1
The next data set concerns PHBPU. Described as above. Format: in vivo, Ipomoea purpurea. The essentials: as §1
Another data set relates to ZEAMX. In words: Post-emergence herbicidal effect and crop plant compatibility, greenhouse pot test. The note with it: Zea mays, 504 h, 20 g/ha, one-leaf stage, rated visually after about 3 weeks vs untreated controls, read-out: Post-emergence effect at 20 g/ha against ZEAMX in %. Format: in vivo, Zea mays. The essentials: as §2
[1] abbreviates: Avena fatua, 504 h, 320 g/ha, read-out: Post-emergence effect against AVEFA.
The mark [2] stands for this setting: Setaria viridis, 504 h, 320 g/ha, read-out: Post-emergence effect against SETVI in %.
The mark [3] stands for this setting: Abutilon theophrasti, 504 h, 320 g/ha, read-out: Post-emergence effect against ABUTH.

The structures appear in SMILES notation.

On to `COC(=O)C(OC)Oc1nn(-c2cccc(Cl)c2F)c(-c2cncc(F)c2)c1Br` (stereo not drawn) [Example I-17], for which, in the data set on AVEFA (320 g/ha), the “Post-emergence effect against AVEFA” value turned out to be 90%. For the same compound, the “Post-emergence effect against ALOMY” value in the data set with ALOMY is 90%. Besides, the “Post-emergence effect against ORYSA” value with ORYSA (20 g/ha) was found to be 0%; with ORYSA (80 g/ha), 20%. The “Post-emergence effect against SETVI in %” value is reported as 80% in the data set with SETVI (80 g/ha) and 90% in the data set on SETVI (320 g/ha). Besides, the results for the “Post-emergence effect against ABUTH” value with ABUTH (20 g/ha), with ABUTH (80 g/ha) and in the data set on ABUTH (320 g/ha) were 80%, 90% and 90%, respectively. For the same compound, the “Post-emergence effect against MATIN in %” value with MATIN (20 g/ha), in the data set with MATIN (80 g/ha) and with MATIN (320 g/ha) was 80% each time. The “Post-emergence effect against VIOTR in %” value in the data set with VIOTR (20 g/ha), in the data set on VIOTR (80 g/ha) and with VIOTR (320 g/ha) was 90% each time. Moreover, the “Post-emergence effect against ECHCG in %” value in the data set with ECHCG (80 g/ha) is reported as 80%; in the data set on ECHCG (320 g/ha), 90%. Also, the “Post-emergence effect against AMARE” value in the data set on AMARE (20 g/ha), with AMARE (80 g/ha) and in the data set with AMARE (320 g/ha) was 80% each time. Also, the “Post-emergence effect against LOLRI in %” value with LOLRI stood at 80%. Moreover, the entries for the “Post-emergence effect against DIGSA” value in the data set with DIGSA (80 g/ha) and with DIGSA (320 g/ha) were 80% and 90%, respectively. The “Post-emergence effect at 20 g/ha against TRZAS in %” value with TRZAS is 10%. Also, the results for the “Post-emergence effect against VERPE in %” value with VERPE (20 g/ha), in the data set on VERPE (80 g/ha) and with VERPE (320 g/ha) were 80%, 80% and 90%, respectively. The “Post-emergence effect against POLCO in %” value in the data set on POLCO (80 g/ha) and in the data set with POLCO (320 g/ha) was 80% in each case. Besides, the “Post-emergence effect against PHBPU in %” value with PHBPU (20 g/ha), in the data set on PHBPU (80 g/ha) and with PHBPU (320 g/ha) was 90% in each case.

On to `COC(=O)C(OC)Oc1nn(-c2cnccn2)c(-c2ccc(F)nc2)c1Cl` (stereo not drawn) [Example I-35], for which the pest or weed control at 320 g/ha with AVEFA (setting [1]) is 80%; in the data set on ALOMY, 90%; in the data set on SETVI (setting [2]), 80%; with ABUTH (setting [3]) it was 80%; with ECHCG (320 g/ha), 90%; with AMARE (320 g/ha), 80%. Besides, the pest or weed control at 320 g/ha with LOLRI and with DIGSA (320 g/ha) was 80% each time. Moreover, in the data set with ORYSA, the “Post-emergence effect at 320 g/ha against ORYSA in %” value is given as 10%. Moreover, the pest or weed control at 80 g/ha in the data set with ECHCG (80 g/ha) came out at 80%. In the data set with TRZAS, the percent crop injury (phytotoxicity) to wheat, post-emergence at 20 g/ha came to 20%. Also, in the data set with ZEAMX, the plant injury at 20 g/ha came to 20%.

With `COC(=O)C(OC)Oc1nn(-c2cc(F)ccc2F)c(-c2cncc(F)c2)c1I` (stereo not drawn) [Example I-28], the pest or weed control at 80 g/ha in the data set with AVEFA (Avena fatua, 504 h, 80 g/ha, read-out: Post-emergence effect against AVEFA) came out at 80%; in the data set on SETVI (Setaria viridis, 504 h, 80 g/ha, read-out: Post-emergence effect against SETVI in %), 80%; in the data set with ABUTH (Abutilon theophrasti, 504 h, 80 g/ha, read-out: Post-emergence effect against ABUTH), 90%; in the data set with MATIN (Tripleurospermum inodorum, 504 h, 80 g/ha, read-out: Post-emergence effect against MATIN in %) it was 90%; in the data set with VIOTR (Viola tricolor, 504 h, 80 g/ha, read-out: Post-emergence effect against VIOTR in %), 90%; in the data set with ECHCG (80 g/ha), 90%. Also, the pest or weed control at 80 g/ha in the data set with PHBPU (Ipomoea purpurea, 504 h, 80 g/ha, read-out: Post-emergence effect against PHBPU in %) came out at 90%. Also, the pest or weed control at 320 g/ha came out at 90% in the data set on AVEFA (setting [1]); 90% with ALOMY; 90% in the data set with SETVI (setting [2]); 100% in the data set with ABUTH (setting [3]); 90% with MATIN (Tripleurospermum inodorum, 504 h, 320 g/ha, read-out: Post-emergence effect against MATIN in %); 90% in the data set on VIOTR (Viola tricolor, 504 h, 320 g/ha, read-out: Post-emergence effect against VIOTR in %). In addition, the pest or weed control at 320 g/ha with ECHCG (320 g/ha) stood at 90%; with AMARE (320 g/ha) it was 80%; in the data set with LOLRI it was 90%; with DIGSA (320 g/ha) it was 80%; in the data set with VERPE (Veronica persica, 504 h, 320 g/ha, read-out: Post-emergence effect against VERPE in %) it was 80%; in the data set with POLCO (Fallopia convolvulus, 504 h, 320 g/ha, read-out: Post-emergence effect against POLCO in %) it was 80%. In the data set on PHBPU (Ipomoea purpurea, 504 h, 320 g/ha, read-out: Post-emergence effect against PHBPU in %), the pest or weed control at 320 g/ha came to 90%. Besides, the “Post-emergence effect at 320 g/ha against ORYSA in %” value in the data set with ORYSA was found to be 20%. Further, the pest or weed control at 20 g/ha in the data set with MATIN (Tripleurospermum inodorum, 504 h, 20 g/ha, read-out: Post-emergence effect against MATIN in %) was found to be 80%; in the data set on VIOTR (Viola tricolor, 504 h, 20 g/ha, read-out: Post-emergence effect against VIOTR in %), 80%; with PHBPU (Ipomoea purpurea, 504 h, 20 g/ha, read-out: Post-emergence effect against PHBPU in %), 80%. In the data set with TRZAS, the percent crop injury (phytotoxicity) to wheat, post-emergence at 20 g/ha is 20%.
